Converted amounts (≈) assume the structure as drawn. Where two headings read alike, the source gives them in different places.
Assays:
[1] = oral, daily; 17th Report of the Joint FAO/WHO Expert Committee on Food Additives, 1974; cited from earlier work
[2] = Solubility of free ergoline compounds in water / phosphate-buffered solution; format: physicochemical; conditions: for Löslichkeit in Wasser: compared with Lisurid; for solubility: free compound, read-out: Löslichkeit
Protocol: Für strukturverwandte Wirkstoffe, welche auf derselben Grundstruktur basieren, können ähnliche physikalischchemische Aktivitäten in vitro, in vivo sowie in klinischen Studien erwartet werden. Die Lisuridderivate Tergurid und Protergurid weisen Alkylsubstituenten am Stickstoff (N6) der Grundstruktur sowie eine Einfachbindung zwischen den Positionen 9 und 10 auf. […] Die Löslichkeit des freien Protergurid beträgt beispielsweise 2.6 mg/100 mL in einer phosphatgepufferten Lösung (pH 7.4). Die Löslichkeit des freien Lisurids kann entsprechend auf 2.2 mg/100 mL abgeschätzt werden, wobei dieser Wert aus den Löslichkeitsdaten der jeweiligen Wirkstoffe/Wirkstoffsalze kalkuliert wurde (Zimmermann I (1983) International Journal of Pharmaceutics 13: 57-65).

[3] = Solubility improvement by cosolvent; format: physicochemical; conditions: Propylenglykol as low-dosed additive (weniger als 10%)
[4] = for Mittlere Fläche (Lisuridpeakfläche zur totalen Peakfläche des Chromatogramms): 9% Propylenglykol, no buffer, 2 mg/3 mL
Protocol: Die Wirkstoffkonzentration wurde auf 2 mg pro 3 mL eingestellt. Es wurde kein Puffersystem hinzugegeben. Das weitere Vorgehen umfasste das Einwiegen von 33.3 mg des Wirkstoffs in einen skalierten 50 mL Kolben, anschließende Zugabe des Propylenglykols (4.5g) sowie die Beigabe von 40 mL Wasser. Der Kolben wurde für mehrere Minuten geschüttelt und anschließend Ultraschall ausgesetzt, bis der Wirkstoff vollständig gelöst war. Der Kolben wurde auf Raumtemperatur abgekühlt und bis zur Markierung mit bidestilliertem Wasser aufgefüllt. Abschließend wurde zur Gewährleistung der Homogenität für eine weitere Minute geschüttelt. Die Lösung wurde in durchsichtige Glasampullen von 1 ml Volumen abgefüllt. Diese wurden luftdicht verschlossen und zum Lichtschutz mit Aluminiumfolie umwickelt. Die Ampullen wurden jeweils bei 6 bis 8°C, 25°C und 40°C aufbewahrt.

[5] = 60°C, one week, in the dark, 10080 min
Protocol: Als Additive wurden Propylenglykol und Cremophor ELP in Konzentrationen zwischen 1.00 und 10.00% eingesetzt. […] Die Lösungen wurden im Dunkeln in Glasbehältern bei 60°C für eine Woche aufbewahrt.

[6] = Stability of Lisuridhydrogenmaleat in citrate-buffered aqueous solutions (RP-HPLC, UV detection); conditions: citrate buffer; for Färbung / degraded at 4320 h: no cosolvent; for Mittlere Fläche (Lisuridpeakfläche zur totalen Peakfläche des Chromatogramms): t 0 d; for degraded at 4320 h: 180 Tage, protected from light

For `CC(O)CO` (stereo not drawn) [Propylenglykol, 1,2-Propandiol (Propylenglykol)], the “geschätzte Menge, welche als tägliche orale Dosis akzeptabel ist” value [1] is listed as 25 mg/kg kg.
With `CCN(CC)C(=O)N[C@H]1C[C@@H]2c3cccc4[nH]cc(c34)C[C@H]2N(C)C1` [Tergurid] the “Löslichkeit in Wasser” value [2] was “vergleichbare Löslichkeit in Wasser wie Lisurid”.
In the case of `CCN(CC)C(=O)N[C@H]1C=C2c3cccc4[nH]cc(c34)C[C@H]2N(C)C1` [Lisuridhydrogenmaleat], the “Löslichkeit des Wirkstoffs” value [3] is reported as “verbesserten Löslichkeit”, the Wirkstoff zersetzt ([4]; 40°C, 180 Tage, 9% Propylenglykol (cosolvent)) is reported as ~10% and the “Mittlere Fläche (Lisuridpeakfläche zur totalen Peakfläche des Chromatogramms)” value (“Mittlere Fläche” for short) ([4]; Erhöhte Temperatur (40°C), t 0 d) is reported as 99.80 Prozent. The “Mittlere Fläche” value ([4]; Erhöhte Temperatur (40°C), t 7 d) was 99.33 Prozent, the “Mittlere Fläche” value ([4]; Erhöhte Temperatur (40°C), t 30 d) was 97.59 Prozent and the “Mittlere Fläche” value ([4]; Erhöhte Temperatur (40°C), t 90 d) was 94.06 Prozent. For the same compound, the “Mittlere Fläche” value ([4]; Erhöhte Temperatur (40°C), t 180 d) was 89.76 Prozent, the Wirkstoff zerfallen ([4]; Kühlschrank (6-8°C), 180 Tage, protected from light, 9% Propylenglykol (cosolvent)) was ~0.4% and the “Mittlere Fläche” value ([4]; Kühlschrank (6-8°C), t 0 d) was 99.80 Prozent. The “Mittlere Fläche” value ([4]; Kühlschrank (6-8°C), t 30 d) was 99.67 Prozent, the “Mittlere Fläche” value ([4]; Kühlschrank (6-8°C), t 90 d) was 99.52 Prozent and the “Mittlere Fläche” value ([4]; Raumtemperatur (25°C), t 0 d) was 99.80 Prozent. The “Mittlere Fläche” value ([4]; Raumtemperatur (25°C), t 30 d) was 99.46 Prozent, the “Mittlere Fläche” value ([4]; Raumtemperatur (25°C), t 90 d) was 99.15 Prozent and the “Mittlere Fläche” value ([4]; Raumtemperatur (25°C), t 180 d) was 98.35 Prozent. The Wirkstoff zerfallen ([5]; 1% Cremophor ELP) was 14,3%, the Wirkstoff zerfallen ([5]; 10% Cremophor ELP) was 21.3% and the Färbung ([6]; 40°C, after 30 Tagen) was “signifikante gelbe Färbung”. For the same compound, the Färbung ([6]; 40°C, after weiteren 60 Tagen (following the first 30)) was “Braun”, the “Mittlere Fläche” value ([6]; Erhöhte Temperatur (40°C), pH 3.5, 2 mg/3 mL) was 99,87 Prozent and the “Mittlere Fläche” value ([6]; Erhöhte Temperatur (40°C), pH 4.5, 2 mg/3 mL) was 99,79 Prozent. The “Mittlere Fläche” value ([6]; Erhöhte Temperatur (40°C), pH 5.1, 2 mg/3 mL) was 100,00 Prozent, the “Mittlere Fläche” value ([6]; Kühlschrank (6-8°C), pH 3.5, 2 mg/3 mL) was 99,87 Prozent and the “Mittlere Fläche” value ([6]; Kühlschrank (6-8°C), pH 4.5, 2 mg/3 mL) was 99,79 Prozent. For the same compound, the “Mittlere Fläche” value ([6]; Kühlschrank (6-8°C), pH 5.1, 2 mg/3 mL) was 100,00 Prozent, the “Mittlere Fläche” value ([6]; Raumtemperatur (25°C), pH 3.5, 2 mg/3 mL) was 99,87 Prozent and the “Mittlere Fläche” value ([6]; Raumtemperatur (25°C), pH 4.5, 2 mg/3 mL) was 99,79 Prozent. For the same compound, the “Mittlere Fläche” value ([6]; Raumtemperatur (25°C), pH 5.1, 2 mg/3 mL) was 100,00 Prozent, the degraded at 4320 h ([6]; Wirkstoff zersetzt, 40°C) was ≤ 30% and the degraded at 4320 h ([6]; Zersetzung, Kühlschrank (6-8°C)) was ~0.7%. It also gave a remaining at 720 h ([6]; pH 3.5, Mittlere Fläche (Lisuridpeakfläche zur totalen Peakfläche des Chromatogramms), Erhöhte Temperatur (40°C), pH 3.5, t 30 d, 2 mg/3 mL) of 90.4%, a remaining at 2160 h ([6]; pH 3.5, Mittlere Fläche (Lisuridpeakfläche zur totalen Peakfläche des Chromatogramms), Erhöhte Temperatur (40°C), pH 3.5, t 90 d, 2 mg/3 mL) of 73.4% and a remaining at 4320 h ([6]; pH 3.5, Mittlere Fläche (Lisuridpeakfläche zur totalen Peakfläche des Chromatogramms), Erhöhte Temperatur (40°C), pH 3.5, t 180 d, 2 mg/3 mL) of 69.9%. The remaining at 2160 h ([6]; pH 4.5, Mittlere Fläche (Lisuridpeakfläche zur totalen Peakfläche des Chromatogramms), Erhöhte Temperatur (40°C), pH 4.5, t 90 d, 2 mg/3 mL) was 90.4%, the remaining at 4320 h ([6]; pH 4.5, Mittlere Fläche (Lisuridpeakfläche zur totalen Peakfläche des Chromatogramms), Erhöhte Temperatur (40°C), pH 4.5, t 180 d, 2 mg/3 mL) was 87.7% and the remaining at 4320 h ([6]; pH 5.1, Mittlere Fläche (Lisuridpeakfläche zur totalen Peakfläche des Chromatogramms), Erhöhte Temperatur (40°C), pH 5.1, t 180 d, 2 mg/3 mL) was 88%. The degraded at 4320 h ([6]; pH 5.1, Zersetzung, Raumtemperatur (25°C), citrate buffer pH 5.1, 4.5, 3.5) was 5%.
In the case of `CCCN1C[C@@H](NC(=O)N(CC)CC)C[C@@H]2c3cccc4[nH]cc(c34)C[C@H]21` [Protergurid], the “Löslichkeit in Wasser” value [2] is reported as “vergleichbare Löslichkeit in Wasser wie Lisurid” and the solubility ([2]; phosphate-buffered solution, phosphatgepufferte Lösung (pH 7.4)) is reported as 26 µg/mL (≈ 70.6 µM).
In the case of `CCN(CC)C(=O)N[C@H]1C=C2c3cccc4[nH]cc(c34)C[C@H]2N(C)C1` [Lisurid], the solubility ([2]; estimated, calculated from solubility data of the drugs/drug salts (Zimmermann 1983)) is reported as ~22 µg/mL.
